Measured values published in ChEMBL document CHEMBL1143699, “Chemical and biological effects of substitution of the 2-position of ring-expanded ('fat') nucleosides containing the imidazo[4,5-e][1,3]diazepine-4,8-dione ring system: the role of electronic and steric factors on glycosidic bond stability and anti-HCV activity” (Bioorg Med Chem, 2007).

Legend:
Hepatitis C virus = test: Antiviral activity against Hepatitis C virus infected Huh7 cells assessed as RNA replicon; format: functional, Hepacivirus hominis, Huh-7
[1] = Cytotoxicity against Huh7 cells relative to control; format: cell-based; settings: human, huh-7

SMILES | Inhibition (Hepatitis C virus) [%] | Activity [1] [%]
Nc1nc(=O)c2nc(-c3ccc(F)cc3)n([C@@H]3O[C@H](CO)[C@@H](O)[C@H]3O)c2c(=O)[nH]1 | 0 | 108.6
COc1cccc(-c2nc3c(=O)nc(N)[nH]c(=O)c3n2[C@@H]2O[C@H](CO)[C@@H](O)[C@H]2O)c1 | 31.8 | 97.2
COc1ccc(-c2nc3c(=O)nc(N)[nH]c(=O)c3n2[C@@H]2O[C@H](CO)[C@@H](O)[C@H]2O)cc1 | 9.5 | 109.8
